From US20170121295A1, “POLYCYCLIC LPA1 ANTAGONIST AND USES THEREOF” (AMIRA PHARMACEUTICALS, INC., priority 2010, published 2017)
Where two headings read alike, the source gives them in different places.

What was measured:
[1] = Pharmacokinetics in Sprague-Dawley Rats; type: in vivo; conditions: for mean dose adjusted exposure (AUC0-24/D) / Cmax / bioavailability / AUC(0-t): PO 1 mg/kg; for mean dose adjusted exposure (AUC0-24/D) / dose adjusted AUC value (AUC0-24/D) / Cmax / bioavailability: fasted; for Cmax / bioavailability / AUC(0-t): Sprague-Dawley, rat, plasma; for Cmax: read-out: maximal plasma concentration (Cmax); for bioavailability: read-out: apparent bioavailability; for AUC(0-t): fed, read-out: exposure (AUC0-24)
Protocol: The pharmacokinetics of Compound 1 and Compound 2 was assessed in male and female Sprague-Dawley rats (225-300 g at 10 weeks).
Compound 2 (1 mg/kg) was administered intravenously (IV) to fasted rats (n=3) as a solution in purified water via a bolus injection into the jugular vein (1 mg/mL; 1 mL/kg). Compound 1 (10 mg/kg) was administered orally (PO), to fasted (for at least 12 hours) or non-fasted rats (n=2 or 3) as a solution in 0.5% methylcellulose unless otherwise noted via an oral gavage to the stomach (3.33 mg/mL; 3 mL/kg). Non-fasted animals were fasted for at least 12 hours and then were given food ad libitum for 1 hour prior to dosing. Fasted animals were dosed 1, 10, 30, 100 or 300 mg/kg Compound 1 as a solution in 0.5% methylcellulose via an oral gavage to the stomach (0.69 mg/mL, 10 mg/mL, 33.3 mg/mL or 100 mg/mL) (n=2 or 3 per dose group). In a gastrointestinal study, rats were anesthetized and Compound 1 was administered directly to the duodenum, jcjunum or ilcum at 1 mg/kg in 0.5% methylcellulose.
Capsules were also administered with Compound 2. Capsules were size 9 gelatin (Torpac, San Diego, Calif.).
Blood samples (approximately 300 μL total blood) were taken from each rat via the jugular vein cannula at pre-dose, and an initial time of 5 or 15 min and then various time points up to 24 hours post-dose (10-11 samples per animal). Samples were collected on wet ice in tubes containing potassium EDTA. After each blood draw, the cannula was flushed with an equivalent volume of heparinized saline (0.1 mL at 40 units/mL). Plasma samples, prepared by centrifugation of whole blood, were stored frozen (−80° C.) prior to analysis.

human LPA2 = biological target: T1, human LPA2 (Homo sapiens, UniProt Q9HBW0); experiment: LPA2 Calcium Flux Assay; type: cell-based; conditions: 100 nM LPA; read-out: Ca Flux IC50 LPA2
T1 construct: endogenous in cells; host or cells: BT-20 human breast cancer cells
T1 sequence (Q9HBW0 whole entry): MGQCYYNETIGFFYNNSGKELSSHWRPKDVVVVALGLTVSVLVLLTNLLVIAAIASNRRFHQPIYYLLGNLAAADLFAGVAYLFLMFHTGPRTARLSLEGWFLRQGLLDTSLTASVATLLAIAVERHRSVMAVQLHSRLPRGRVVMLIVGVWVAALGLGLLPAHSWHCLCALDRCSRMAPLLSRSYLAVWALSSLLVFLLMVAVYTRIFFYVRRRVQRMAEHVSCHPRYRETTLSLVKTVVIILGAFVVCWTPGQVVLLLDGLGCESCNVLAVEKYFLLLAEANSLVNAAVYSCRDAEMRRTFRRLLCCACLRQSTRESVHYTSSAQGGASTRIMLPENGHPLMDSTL
Protocol: A vector containing the human LPA2 receptor cDNA was obtained from the Missouri S&T cDNA Resource Center (www.cdna.org). The full-length cDNA fragment for human LPA2 was obtained by PCR from the vector. The nucleotide sequence of the cloned human LPA2 was determined by sequencing and confirmed to be identical to the published human LPA2 sequence (NCBI accession number NM_004720). The cDNA was cloned into the pCDNA3.1 expression plasmid and transfected into B103 cells (Invitrogen Corp., USA) by seeding cells in a 96-well poly-D-lysine coated plate at 30,000-35,000 cells per well together with 0.2 μl lipofectamine 2000 and 0.2 μg of the LPA2 expression vector. Cells were cultured overnight in complete media before being assayed for LPA-induced Ca-influx.
BT-20 human breast cancer cells are seeded at 25,000-35,000 cells per well in 150 μl complete media on Poly-D-Lysine coated black-wall clear-bottom plates. Following an overnight culture, cells are washed once with PBS then serum starved for 4-6 hours prior to the assay. […] Cells are the stimulated by the addition of 100 nM LPA and intracellular Ca^2+ measured using the Flexstation 3 (Molecular Devices). IC50s are determined using Symyx Assay Explorer analysis of drug titration curves.

[2] = Metabolite identification in liver microsomes; type: in vitro ADME, rat, dog, monkey, human; conditions: human microsomes
Protocol: To determine the qualitative metabolic profile, 30 μM of Compound 1 was incubated aerobically with rat, dog, monkey, or human liver microsomes (1 mg/mL). The incubations were performed in phosphate buffer at pH 7.4, 37° C., with the reaction initiated by the addition of P-NADPH, GSH and/or UDPGA (1, 5 and 2 mM final concentration, respectively). The reaction was terminated by the addition of 3 times incubation volume of acetonitrile after 60 minutes. The sample was centrifuged and the supernatant was transferred, nitrogen blow dried and reconstituted in 50% acetonitrile in water for LC/MS analysis.
LC/MS/MS analysis was carried out with a Sciex API-4000Qtrap tandem mass spectrometer (Applied Biosystems/Life Technologies, Carlsbad, Calif.) interfaced to a high-performance liquid chromatography system consisting of an Agilent 1200 series pump (Foster City, Calif.) and a LEAP Technologies PAL autoinjector (Carrboro, N.C.).
Parent/metabolite analysis was conducted in the positive ion mode (ESI) by multiple reaction monitoring of parent. The mobile phases contained 10 mM ammonium acetate in water with 0.05% formic acid (solvent A) and 10 mM ammonium acetate in 50% acetonitrile/50% methanol with 0.05% formic acid (solvent B). For Compound 1, the flow rate was maintained at 1 mL/min and the total run time was 2.5 min. Analytes were separated on a YMC ODS-AQ column (2.1×150 mm; 3 μm) and eluted with a linear gradient as follows: • 1. mobile phase was held for 0.5 min at 5% B, • 2. B was increased from 5% to 95% over the next 0.2 min, • 3. B was held constant for 1.3 min at 95%, and • 4. B was returned to the initial gradient conditions.
GSH adducts were investigated in microsomes, hepatocytes and rat bile using several methods including the neutral loss of pyroglutamate (129 Da) as well as a precursor ion scans of Compound 1 (105 Da, 318 Da and 438 Da).
For metabolite quantitation, the flow rate was maintained at 0.25 mL/min and the total run time was 60 min. Analytes were separated using a linear gradient as follows: • 1. mobile phase was held for 5 min at 5% B, • 2. […]

Structure (SMILES): Cc1noc(-c2ccc(-c3ccc(C4(C(=O)O)CC4)cc3)cc2)c1NC(=O)O[C@H](C)c1ccccc1 [Compound 1, 1-{4′-[3-methyl-4-((R)-1-phenyl-ethoxycarbonylamino)-isoxazol-5-yl]-biphenyl-4-yl}-cyclopropanecarboxylic acid]
- mean dose adjusted exposure (AUC0-24/D) ([1]; females): 1.9 µg·h/mL
- mean dose adjusted exposure (AUC0-24/D) ([1]; males): 2.1 µg·h/mL
- exposure in fed vs. fasted animals ([1]; PO 10 mg/kg): slightly lower exposure in fed animals vs. fasted
- dose adjusted AUC value (AUC0-24/D) ([1]; PO 10 mg/kg, female rats): 2.7 µg·h/mL
- dose adjusted AUC value (AUC0-24/D) ([1]; PO 10 mg/kg, male rats): 2.4 µg·h/mL
- dose proportionality of exposure ([1]; PO 30, 100 and 300 mg/kg): greater than dose proportional
- dose proportionality of exposure ([1]; PO doses of 1 and 10 mg/kg, suspension): dose proportional
- Cmax ([1]; female rats): 300 ng/mL
- bioavailability ([1]; female): 58%
- Cmax ([1]; male rats): 400 ng/mL
- bioavailability ([1]; male): 63%
- AUC(0-t) ([1]; female rats): 1400 ng·h/mL
- AUC(0-t) ([1]; male rats): 1600 ng·h/mL
- regional absorption ([1]; administered directly to duodenum, jejunum or ileum at 1 mg/kg): good oral bioavailability along the entire gastrointestinal tract
- dose normalized exposure ([1]; oral, 10 mg/kg): 5.1 µg·h/mL
- IC50 (human LPA2): > 1000 nM
- GSH adduct in microsomes [2]: No GSH adduct was observed
